Experimental data reported in patent US8309097B2, “C-type lectin binding molecules, identification and uses thereof” (Vereniging voor Christelijk Wetenschappelijk Onderwijs, priority 2002, dated 2012).
Entries after “also recorded” stand apart in the source; their conditions may differ. Where two headings read alike, the source gives them in different places.

Assays:
[1] = molecular target: T1, DC-SIGN on immature monocyte derived DC (Homo sapiens, UniProt Q9NNX6); test: Fluorescent bead adhesion assay, immature DC; format: cell-based
T1 construct: Immature DC were cultured from monocytes in the presence of IL-4 and GM-CSF; endogenous in cells; host or cells: immature monocyte-derived dendritic cells
T1 sequence (Q9NNX6 1-404): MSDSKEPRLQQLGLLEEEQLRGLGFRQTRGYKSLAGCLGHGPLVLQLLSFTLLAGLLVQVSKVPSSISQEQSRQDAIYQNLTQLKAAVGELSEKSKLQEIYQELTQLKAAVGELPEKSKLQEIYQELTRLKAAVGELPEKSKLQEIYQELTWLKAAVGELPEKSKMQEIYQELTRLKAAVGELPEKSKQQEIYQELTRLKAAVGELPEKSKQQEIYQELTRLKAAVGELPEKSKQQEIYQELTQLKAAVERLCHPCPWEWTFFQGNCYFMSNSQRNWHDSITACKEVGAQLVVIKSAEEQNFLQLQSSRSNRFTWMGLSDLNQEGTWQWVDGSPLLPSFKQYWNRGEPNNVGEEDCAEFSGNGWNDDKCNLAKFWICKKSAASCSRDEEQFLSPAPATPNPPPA

[2] = test system: granulocytes; test: DC-SIGN-Fc adhesion to granulocytes
[3] = molecular target: T2, DC-SIGN-Fc (Homo sapiens, UniProt Q9NNX6); test: Soluble DC-SIGN-Fc adhesion assay (Fc ELISA)
T2 sequence (Q9NNX6 64-404): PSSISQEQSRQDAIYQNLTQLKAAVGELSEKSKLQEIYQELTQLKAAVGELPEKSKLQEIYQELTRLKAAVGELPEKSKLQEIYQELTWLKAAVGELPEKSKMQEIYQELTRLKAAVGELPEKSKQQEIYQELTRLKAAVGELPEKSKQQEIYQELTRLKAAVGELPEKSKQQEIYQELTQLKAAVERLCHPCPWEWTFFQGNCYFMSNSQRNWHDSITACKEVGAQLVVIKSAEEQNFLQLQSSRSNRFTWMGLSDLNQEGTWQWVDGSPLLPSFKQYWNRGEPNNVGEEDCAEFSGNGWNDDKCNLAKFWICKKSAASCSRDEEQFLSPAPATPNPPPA

[4] = molecular target: T2, DC-SIGN-Fc; test: Immunoprecipitation and detection with DC-SIGN-Fc; format: binding; details: immunoprecipitation
From the text: FIG. 59. […] Cell-surface proteins are biotinylated and PMNs are lysed. Lane 1. negative control using ICAM-3 Fc to capture by IP proteins. Detection is peroxidase-labeled streptavidin. Lane 2. DC-SIGN-Fc is used to capture ligands biotinylated ligands from lysate; two protein bands are visible, the upper band consists of CD11b and CD66a, whereas the lower consists of CD18. Lane 3. Negative control; no bands are immune precipitated with anti-DC-SIGN antibodies. Lane 4, IP with antibodies against CD66acd; a faint band is visible containing CD66a. Lane 5, IP of CD11b; two bands are visible; the upper band is […] and the lower band is CD18m, which is co-immuneprecipitated with […]. Lane 6. IP with DC-SIGN ligands and detection with anti-CD66acd; CD66a is captured by DC-SIGN Fc. Lane 7. IP with DC-SIGN ligands and detection with anti-CD11b; CD11b is captured by DC-SIGN Fc. Lane 8. Negative control, IP with anti-DC-SIGN antibodies and detection with DC-SIGN-Fc. Lane 9. IP with anti-CD66acd and detection with DC-SIGN Fc; CD66a is bound by DC-SIGN on blot. Lane 10. IP with anti-CD11a and detection with DC-SIGN Fc; CD11a is bound by DC-SIGN on blot.
Immunoprecipitation. […]

[5] = molecular target: T3, DC-SIGN expressed by K562 transfectants (Homo sapiens, UniProt Q9NNX6); format: cell-based
T3 construct: expressed in transfected cells; host or cells: K562
T3 sequence (Q9NNX6 1-404): T1 sequence (Q9NNX6 1-404)

[6] = molecular target: L-SIGN expressed by K562 transfectants (Homo sapiens, UniProt Q9H2X3); format: cell-based
Chain of L-SIGN expressed by K562 transfectants (Q9H2X3 whole entry, looked up): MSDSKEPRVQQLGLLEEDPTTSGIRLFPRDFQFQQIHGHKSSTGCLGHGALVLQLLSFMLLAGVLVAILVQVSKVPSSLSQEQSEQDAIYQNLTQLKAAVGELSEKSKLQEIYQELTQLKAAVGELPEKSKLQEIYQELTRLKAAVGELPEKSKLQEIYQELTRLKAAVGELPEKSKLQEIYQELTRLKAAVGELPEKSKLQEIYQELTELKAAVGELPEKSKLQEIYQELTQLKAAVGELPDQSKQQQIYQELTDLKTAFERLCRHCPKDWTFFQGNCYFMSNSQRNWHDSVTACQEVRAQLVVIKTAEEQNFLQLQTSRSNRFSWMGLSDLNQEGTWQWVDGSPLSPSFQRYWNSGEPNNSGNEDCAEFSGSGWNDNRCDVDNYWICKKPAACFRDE

[7] = test system: immature DC; format: cell-based, human
[8] = molecular target: mSIGNR1 (Mus musculus, UniProt Q8CJ91); format: cell-based, murine
Chain of mSIGNR1 (Q8CJ91 whole entry): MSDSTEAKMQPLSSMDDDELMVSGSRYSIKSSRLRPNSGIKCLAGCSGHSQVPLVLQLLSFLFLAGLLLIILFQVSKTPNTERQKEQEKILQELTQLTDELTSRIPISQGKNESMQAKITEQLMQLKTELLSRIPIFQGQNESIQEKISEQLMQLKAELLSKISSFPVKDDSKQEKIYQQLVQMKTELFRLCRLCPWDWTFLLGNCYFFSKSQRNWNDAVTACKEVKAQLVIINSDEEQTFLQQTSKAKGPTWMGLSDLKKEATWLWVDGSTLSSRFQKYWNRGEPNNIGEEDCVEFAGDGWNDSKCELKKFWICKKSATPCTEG

[9] = test system: K562 transfectants expressing DC-SIGN; format: cell-based, human

Molecule: O=C(O)CN(CCOCCOCCN(CC(=O)O)CC(=O)O)CC(=O)O [EGTA]
- inhibition of ManLAM binding by immature DC [1]: block
- inhibition of DC-SIGN-Fc binding to granulocytes [2]: blocked
- inhibition of DC-SIGN-Fc binding to SEA ([3]; coated SEA): completely inhibited
- inhibition of DC-SIGN-Fc binding to M. tuberculosis and M. bovis BCG ([3]; coated whole mycobacteria): inhibited

Molecule: CD11b: Lewis X-expressing CD11b captured from PMN lysate
- binding of DC-SIGN-Fc after α-1,3,4 Fucosidase treatment of the ligand [4]: abrogated
- binding of DC-SIGN-Fc to coated ligand ([3]; ELISA, ligand coated): high affinity binding
- binding of ligand-coated beads to K562 DC-SIGN transfectants [5]: interacted strongly

Molecule: mannan
- inhibition of ManLAM binding by immature DC [1]: block
- inhibition of SEA binding to DC [1]: strongly blocked
- inhibition of DC-SIGN-Fc binding to granulocytes [2]: blocked
- binding of ligand-coated beads to K562 L-SIGN transfectants [6]: bind
- inhibition of gp120 binding to L-SIGN [6]: inhibited
- inhibition of M. bovis BCG binding/infection of immature DC [7]: blocked the infection to a similar level as the DC-SIGN antibodies
- inhibition of Neisseria IgtB binding to DC [7]: partly inhibit
- binding of DC-SIGN-Fc to coated ligand [3]: binds
- inhibition of DC-SIGN-Fc binding to M. tuberculosis and M. bovis BCG [3]: inhibited
- binding of ligand-coated beads to K562 DC-SIGN transfectants [5]: bind
- inhibition of gp120 binding to DC-SIGN [5]: inhibited
- binding of ligand-coated beads to K562 mSIGNR1 transfectants [8]: bind
- inhibition of gp120 binding to mSIGNR1 [8]: inhibited
- inhibition of internalization of M. bovis BCG by K562 DC-SIGN transfectants [9]: blocked

Molecule: sialyl Lewis A
- binding of ligand-coated beads to K562 DC-SIGN transfectants [5]: bind
- binding of ligand-coated beads to K562 mSIGNR1 transfectants [8]: bind

Molecule: sialyl-Le^x
- binding of DC-SIGN-Fc to coated ligand [3]: completely abrogates the recognition; also recorded: lower binding affinity
- binding of ligand-coated beads to K562 mSIGNR1 transfectants [8]: interacts

Molecule: α1->3, α1->6 mannotriose
- binding of ligand-coated beads to immature DC [1]: preferentially bound by DC-SIGN
- binding of DC-SIGN-Fc to coated ligand [3]: binds; also recorded: high affinity
- binding of ligand-coated beads to K562 DC-SIGN transfectants [5]: bound similarly to the glycoconjugates as DC-SIGN-Fc

Molecule: […]-L-fucose
- binding of DC-SIGN-Fc to coated ligand [3]: lower binding affinity
